# Measured values from patent US20250122207A1, “AP2 ASSOCIATED KINASE 1 INHIBITORS AND USES THEREOF” (Satellos Bioscience Inc., priority 2023, published 2025).
# Assays:
# [1] = biological target: T1, AAK1 (amino acids T27-A365) (Homo sapiens, UniProt Q2M2I8); experiment: AAK1 pSENs assay; format: biochemical; settings: class symbols; read-out: AAK1 pSENs: EIC50
# T1 construct: against AAK1 (amino acids T27-A365); 6His (N, cleaved yes)
# Method: The recombinant proteins were independently expressed in Escherichia coli BL21(DE3) cells cultured in Luria-Bertani (LB) medium until OD600 reached 0.6-0.8, then cooled to 15° C. and supplemented with 0.5 mM isopropyl 1-thio-D-galactopyranoside (IPTG) induce protein expression 16 h. Cells were harvested and resuspended in lysis buffer (50 mM HEPES pH 7.5, 500 mM NaCl, 5 mM imidazole, 5% glycerol, 0.5 mM Tris (2-carboxyethyl) phosphine (TCEP), cOmplete Protease Inhibitor Tablet (Roche)) and lysed by microfludics high pressure homogenizer (UH-06, Union-Biotech). Proteins were purified using […] chromatography (His FF column, Bestchrom) and eluted stepwise in binding buffer with 20-300 mM imidazole. Removal of the hexahistidine tag was performed at 4° C. overnight using recombinant TEV protease and reacted with BirA to obtain the corresponding biotinylated-AAK1, BIKE or GAK proteins. Further separated in the reverse Strep column (Strep-Tactin® XT, IBA). The Biotin elution sample was collected containing untagged biotinylated protein was then purified by Ion-exchange chromatography (Mono Q 10/100 GL, Cytiva) and Size-exclusion chromatography (HiLoad 16/600 Superdex 200 pg, Cytiva). The pure protein was stored in a storage buffer 50 mM HEPES (pH 7.5), 300 mM NaCl, 5% glycerol at −80° C. Protein were characterized by SDS-PAGE, LC-MS and aSEC.
# This example describes one illustrative method for determining the IC50 of the compounds of the present invention against AAK1 (amino acids T27-A365). AAK1 protein was dissolved at 20 nM in 1× enzyme solution (50 mM HEPES pH7.5, 10 mM MgCl2, 1 mM DTT, 1% glycerol, 0.5 mM EGTA, 0.01% Briji35, 0.02% BSA) and 12.5 ul was incubated with 250 nl DMSO or 250 nl compound in DMSO at 25° C. for 15 min. The reaction was started by addition of 12.5 ul of 30 uM AQT0759 (Assayquant, CSKS-AQT0759B) and 70 uM ATP which were diluted in 1× substrate dilution buffer (50 mM HEPES pH7.5, 10 mM MgCl2, 1 mM DTT, 1% glycerol, 0.5 mM EGTA, 0.01% Briji35).
# AAK1 = AAK1 (Homo sapiens, UniProt Q2M2I8); experiment: pAP2M1 cell-based assay (in-cell Western); settings: Hela cells co-transfected with AP2M1 and AAK1, 3 hr treatment; class symbols; read-out: AAK1 In-cell Western: IC50
# AAK1, sequence (Q2M2I8 whole entry): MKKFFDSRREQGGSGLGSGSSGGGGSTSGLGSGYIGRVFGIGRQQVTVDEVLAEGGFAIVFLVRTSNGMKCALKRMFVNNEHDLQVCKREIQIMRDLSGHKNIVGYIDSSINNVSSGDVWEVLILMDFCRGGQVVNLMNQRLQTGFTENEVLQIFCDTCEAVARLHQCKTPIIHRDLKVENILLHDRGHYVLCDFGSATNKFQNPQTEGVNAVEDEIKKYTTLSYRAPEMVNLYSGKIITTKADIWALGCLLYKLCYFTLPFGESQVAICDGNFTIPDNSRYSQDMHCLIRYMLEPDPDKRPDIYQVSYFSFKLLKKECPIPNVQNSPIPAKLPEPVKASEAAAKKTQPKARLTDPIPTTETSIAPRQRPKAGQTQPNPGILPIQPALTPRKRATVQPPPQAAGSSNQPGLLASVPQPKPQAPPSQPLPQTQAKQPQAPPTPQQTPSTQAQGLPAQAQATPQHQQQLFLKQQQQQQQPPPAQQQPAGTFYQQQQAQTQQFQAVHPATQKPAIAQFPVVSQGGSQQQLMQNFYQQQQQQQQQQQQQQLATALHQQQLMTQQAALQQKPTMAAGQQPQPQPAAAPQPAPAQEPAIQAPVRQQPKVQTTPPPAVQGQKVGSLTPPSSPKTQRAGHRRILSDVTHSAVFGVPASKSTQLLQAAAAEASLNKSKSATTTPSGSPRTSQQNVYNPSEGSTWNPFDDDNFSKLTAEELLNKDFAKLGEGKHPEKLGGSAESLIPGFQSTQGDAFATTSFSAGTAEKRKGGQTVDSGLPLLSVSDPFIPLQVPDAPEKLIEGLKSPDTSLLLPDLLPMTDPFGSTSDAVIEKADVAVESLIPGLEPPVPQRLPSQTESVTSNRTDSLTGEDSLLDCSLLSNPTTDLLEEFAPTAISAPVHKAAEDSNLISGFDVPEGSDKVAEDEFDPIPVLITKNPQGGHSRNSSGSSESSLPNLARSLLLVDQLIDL
# From the text: pAP2M1 Cell-Based Assay (in-Cell Western):
# The plate was read on Licor Odyssey CLx imaging system (LICOR) to acquire fluorescence intensity at 700 channel and 800 channel.
# Data analysis: Fluorescence intensity at 700 channel served as internal standard and 800 channel were normalized with 700 channel.
# T1 sequence (Q2M2I8 27-365): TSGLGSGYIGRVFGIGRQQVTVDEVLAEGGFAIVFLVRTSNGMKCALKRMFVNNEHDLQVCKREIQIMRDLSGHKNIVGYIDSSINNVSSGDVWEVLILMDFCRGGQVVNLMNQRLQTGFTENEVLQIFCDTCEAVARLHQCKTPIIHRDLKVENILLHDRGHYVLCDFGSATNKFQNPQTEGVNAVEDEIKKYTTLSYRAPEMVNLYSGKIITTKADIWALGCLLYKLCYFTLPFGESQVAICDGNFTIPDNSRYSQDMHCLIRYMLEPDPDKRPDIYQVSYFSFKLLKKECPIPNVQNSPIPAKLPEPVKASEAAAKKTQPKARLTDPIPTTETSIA
SMILES,IC50 [1],IC50 (AAK1)
"O=C1C[C@H](OC(=O)N[C@H]2CCN(c3ccn4ncc(-c5cccnc5OC5CC5)c4n3)C2)CN1 [Compound I-55, (S)-5-oxopyrrolidin-3-yl ((S)-1-(3-(2-cyclopropoxypyridin-3-yl)pyrazolo[1,5-a]pyrimidin-5-yl)pyrrolidin-3-yl)carbamate]",151 to 500 nM,> 1500 nM
"C[C@H]1CN(c2ccn3ncc(-c4cccnc4OC4CC4)c3n2)CCN1C(=O)O[C@@H]1CNC(=O)C1 [Compound I-40, [(3S)-5-Oxopyrrolidin-3-yl](2S)-4-[3-[2-(cyclopropoxy)-3-pyridyl]pyrazolo[1,5-a]pyrimidin-5-yl]-2-methyl-piperazine-1-carboxylate]",151 to 500 nM,> 1500 nM
"Cc1nn2ccc(N3CCN(C(=O)O[C@H]4CC(=O)N(C)C4)CC3)nc2c1-c1cccnc1OC1CC1 [Compound I-108, [(3S)-1-methyl-5-oxo-pyrrolidin-3-yl]-4-[3-[2-(cyclopropoxy)-3-pyridyl]-2-methyl-pyrazolo[1,5-a]pyrimidin-5-yl]piperazine-1-carboxylate]",> 1500 nM,> 1500 nM
"O=C(O[C@H]1CO[C@H]2OCC[C@H]21)N1CCN(c2ccn3ncc(-c4ccncn4)c3n2)CC1 [Compound I-67, [(3aS,4R,6aR)-2,3,3a,4,5,6a-hexahydrofuro[2,3-b]furan-4-yl]4-(3-pyrimidin-4-ylpyrazolo[1,5-a]pyrimidin-5-yl)piperazine-1-carboxylate]",501 to 1500 nM,> 1500 nM
"CN1C[C@@H](OC(=O)N2CCN(c3nc4c(-c5cccnc5OC5CC5)cnn4cc3O)CC2)CC1=O [Compound I-110, [(3S)-1-methyl-5-oxo-pyrrolidin-3-yl]-4-[3-[2-(cyclopropoxy)-3-pyridyl]-6-hydroxy-pyrazolo[1,5-a]pyrimidin-5-yl]piperazine-1-carboxylate]",> 1500 nM,> 1500 nM
"COC(=O)N1CC(Oc2ncccc2-c2cnn3ccc(N4CCN(C(=O)O[C@@H]5CC(=O)N(CCOCc6ccccc6)C5)CC4)nc23)C1 [Compound I-84-6, [(3R)-1-(2-benzyloxyethyl)-5-oxo-pyrrolidin-3-yl]-4-[3-[2-(1-methoxycarbonyl-azetidin-3-yl)oxy-3-pyridyl]pyrazolo[1,5-a]pyrimidin-5-yl]piperazine-1-carboxylate]",151 to 500 nM,> 1500 nM
"CN(CCN1C[C@@H](OC(=O)N2CCN(c3ccn4ncc(-c5cccnc5OC5CC5)c4n3)CC2)CC1=O)C(=O)OC(C)(C)C [Compound I-35, (S)-1-(2-((tert-butoxycarbonyl)(methyl)amino)ethyl)-5-oxopyrrolidin-3-yl-4-(3-(2-cyclopropoxypyridin-3-yl)pyrazolo[1,5-a]pyrimidin-5-yl)piperazine-1-carboxylate]",51 to 150 nM,> 1500 nM
"CN(C)CCN1CC[C@@](C)(OC(=O)N2CCN(c3ccn4ncc(-c5cccnc5OC5CC5)c4n3)CC2)C1 [Compound I-53, (R)-1-(2-(dimethylamino)ethyl)-3-(methylpyrrolidin-3-yl)-4-(3-(2-cyclopropoxypyridin-3-yl)pyrazolo[1,5-a]pyrimidin-5-yl)piperazine-1-carboxylate]",1 to 50 nM,151 to 500 nM
